Consider 14 compounds from publication PMC5881420, “Identification, Expression Patterns, and Functional Characterization of Chemosensory Proteins in Dendroctonus armandi (Coleoptera: Curculionidae: Scolytinae)” (Frontiers in Physiology, 2018).

The target in experiment [1] is DarmCSP2 (Dendroctonus armandi, UniProt A0A3S7PYZ0). The experiment is described as follows: Fluorescence competitive binding assay (1-NPN displacement). The settings on record: for IC50: 2 μM DarmCSP2 and 2 μM 1-NPN titrated with ligand 2–16 μM, three independent measurements; for Ki: calculated from IC50: KD = [IC50]/(1+[1-NPN]/K1-NPN). As for the experimental part:
A Hitachi F-4500 fluorescence spectrophotometer was used to measure emission fluorescence spectra, in a right-angle configuration with a 1 cm light-path quartz cuvette. The slit width was […] for both excitation and emission. DarmCSPs were dissolved to 2 μM in 50 mM Tris-HCl buffer (pH = 7.4), whereas fluorescent probe N-phenyl-1-naphthylamine (1-NPN) and all semiochemicals were dissolved in methanol with a 1 mM stock solution. […] Excitation of 1-NPN occurred at 337 nm, with the emission spectra recorded from 360 to 500 nm. Corresponding fluorescence intensity values were plotted against free 1-NPN concentration to determine DarmCSP binding constants. Bound 1-NPN concentrations were assessed based on fluorescence intensity, assuming DarmCSPs were 100% active and protein: ligand = 1:1 at saturation. The dissociation-constants curve was linearized with Scatchard plots in Prism 6.0 (GraphPad Software, CA, USA).
Ligand affinity was measured with competitive binding assays. Fourteen compounds were selected based on previous reports (Zhang et al., [2010]; Xie and Lv, [2012]; Chen et al., [2015]; Zhao et al., [2017a],[b]), including 10 host volatiles and four D. armandi pheromones (Table 2). A mixture of 2 μM DarmCSP and 2 μM 1-NPN was titrated with each ligand to final concentrations of 2–16 μM. Corresponding fluorescence intensities were recorded from three independent measurements. Dissociation constants of competitive ligands were calculated according to IC50 values, using the equation: KD = [IC50]/(1+[1-NPN]/K1−NPN), where IC50 is competitive-ligand concentration at half the initial fluorescence of 1-NPN, 1-NPN is the concentration of free 1-NPN, and K1−NPN is the dissociation constant of DarmCSP with 1-NPN.

Experiment [2] relates to DarmCSP3. Put plainly: Fluorescence binding assay of 1-NPN with DarmCSP3. Also noted: species or system Dendroctonus armandi. The settings on record: DarmCSP3, 2 μM protein titrated with 1-NPN. From the text: (§1) To better characterize DarmCSP function, three antennae-preferential genes (DarmCSP 1–3) were chosen for expression in bacteria. Signal peptides were removed to generate properly folded proteins. PCR products encoding mature proteins were amplified using gene-specific primers (Table S1), cloned into pGEM-T easy vectors (Promega, Madison, USA), then excised and cloned into the bacterial expression vector pET32a(+) (Novagen, Madison, WI), between BamHI and XhoI restriction sites. Successful cloning was verified through PCR and sequencing. Plasmids containing the correct insert were extracted and transformed into E. coli BL21 (DE3) competent cells. Positive clones were incubated at 37°C until absorbance = 0.6 at OD 600, and protein expression was induced with IPTG (isopropyl-β-D-1-thiogalactopyranoside) treatment (28°C for 6 h) to a final concentration of 0.5 mM. […]
(§2) Recombinant proteins were purified with N-termini His tagged from the supernatant using a Ni-NTA-Sefinose Column (Sangon, Shanghai, China), and placed in a buffer (25 mM Tris-HCl, 50 mM NaCl, and 2 mM CaCl2, pH 7.6) for dialysis. To avoid confounding effects in fluorescence binding assays, His-tags were excised using Recombinant Enterokinase with His-tag (rEK) (Sangong, Shanghai, China), and the resultant complex was cleared through a Ni-NTA-Sefinose Column. […]

Experiment [3] has as its system DarmCSP1. Put plainly: Fluorescence binding assay of 1-NPN with DarmCSP1. The arrangement: species or system Dendroctonus armandi. The settings on record: DarmCSP1, 2 μM protein titrated with 1-NPN.
Source text: as §1, §2

The test system of experiment [4] is D. armandi antennae. Put plainly: Electroantennogram (EAG) of antennae after RNAi of DarmCSP2. The arrangement: species or system Dendroctonus armandi. The settings on record: 48 h post-injection; semiochemical 10 μg/μL in hexane; compared with non-injected and water-injected controls; P < 0.05. As for the experimental part: Freshly and synchronously emerged adults were anesthetized on glass petri dishes placed for 30 min in an ice bath, before injection with 0.2 μL dsCSP2 into the hemocoel at the suture under the hindleg. Injections used Hamilton Microliter™ syringes (700 series, RN) with 32G sharp-point needles (Hamilton, Switzerland). Controls were either injected with 0.2 μL DEPC-treated water or not injected. Subjects were then transferred onto wet filter paper placed in clear glass petri dishes for continuous culture (at 20 ± 1°C, 50% humidity). Three males and three females were removed at different time intervals (12, 24, and 48 h) from each treatment group for storage at −80°C until qRT-PCR analysis. Three replicates were performed per treatment group (non-injected, water-injected, dsCSP2-injected). RNA isolation, cDNA synthesis, and qRT-PCR procedure followed methods described above (“RNA isolation and cDNA synthesis” and “Expression patterns of CSP genes across different life stages and tissues”).
Electroantennograms (EAG) were used to detect RNAi efficiency of dsCSP2 and determine DarmCSP2 function in binding semiochemicals. Methods were modified from a previous study (Zhang et al., [2010]). Subject beetles were chosen based on post-RNAi qRT-PCR and anesthetized in an ice bath. Antennae were carefully excised at their base with a scalpel and immediately connected between two electrode holders using Spectra 360 electrode gel.
Semiochemicals were selected based on the results of fluorescence binding assays and dissolved to 10 μg/μL in hexane. Hexane alone acted as a blank control and 1 μg/μL 1-hexanol was used as a standard to normalize all EAG recordings (Zhang et al., [2010]). Semiochemical solutions (20 μL) were loaded onto filter paper strips (5 × 30 mm) and then transferred into a Pasteur pipette. The pipette tip was then inserted into a small hole in the wall of a steel tube (15 mm diameter × 15 cm length). The tube was connected to an air stimulus controller (CS-05b Syntech, the Netherlands) for constant humidified airflow delivery at a rate of 40 mL/min. The open end of the tube was positioned 1 cm before an antenna affixed between two electrode holders.
To stimulate the antenna, semiochemical-containing air was introduced through the pipette into the main air flow at a rate of 20 mL/min for 0.2 s. Each stimulus was separated by at least a 1 min interval to ensure complete antenna recovery. Signals were recorded using an IDAC-2 unit plus amplifier and Syntech EAG 2000 (Syntech, Netherlands). The control and standard were tested before and after every semiochemical solution. Antennae from12 individuals (six males and six females) were tested, with three replicates per antenna. To calculate EAG values, mean responses of the solvent control before and after exposure were subtracted from mean sample responses, then converted to a percentage of the accompanying standard (Zhang et al., [2010]).

Chain of DarmCSP2 (A0A3S7PYZ0 entry or part of it): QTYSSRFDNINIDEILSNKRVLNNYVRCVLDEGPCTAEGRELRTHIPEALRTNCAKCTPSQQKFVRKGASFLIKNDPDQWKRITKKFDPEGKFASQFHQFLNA

As a reminder, the IC50 is the concentration that inhibits the measured activity by half. A high value points to weaker potency. As a reminder, the Ki is the equilibrium dissociation constant of an inhibitor or competing ligand from its target. For the compound `CC1=C[C@H](O)[C@@H]2C[C@H]1C2(C)C` (relative stereo) [(-)-trans-Verbenol], in experiment [1], the IC50 was found to be 4.33 ± 0.1 µM and the Ki is 2.8 ± 0.07 µM.

Turning to (±)-Frontalin, in experiment [1], the IC50 was determined as 26.2 ± 1.94 µM and the Ki is 16.9 ± 1.26 µM.

Consider `c1ccc(Nc2cccc3ccccc23)cc1` [1-NPN, N-phenyl-1-naphthylamine], for which the “Affinity to 1-NPN” value in experiment [2] and in experiment [3] was “no obvious affinity” each time.

On to (+)-α-Pinene, for which, in experiment [1], the IC50 is 3.6 ± 0.03 µM and the Ki is 2.33 ± 0.02 µM. Moreover, in experiment [4], the “Effect of dsCSP2 injection on antennae EAG activity in response to the semiochemical” value (“Effect of dsCSP2 injection” for short) is “significantly reduced”.

With `CC1=CCC2CC1C2(C)C` (stereo not drawn) [(–)-α-Pinene], in experiment [1], the IC50 is 2.53 ± 0.11 µM and the Ki is 1.64 ± 0.08 µM.

For (+)-β-Pinene, in experiment [1], the IC50 is 5.9 ± 1.31 µM and the Ki is 3.8 ± 0.84 µM. Further, the “Effect of dsCSP2 injection” value in experiment [4] is “significantly reduced”.

On to `C=C1[C@H]2CC[C@H](C2)C1(C)C` [(+)-Camphene], for which the “Effect of dsCSP2 injection” value in experiment [4] is given as “significantly reduced”.

On to (–)-β-Pinene, for which, in experiment [1], the IC50 was 5.93 ± 0.17 µM and the Ki is 3.83 ± 0.11 µM. In addition, the “Effect of dsCSP2 injection” value in experiment [4] is reported as “significantly reduced”.

Consider `CC[C@@H]1O[C@]2(C)CCC[C@H]1O2` (racemic) [(±)-exo-Brevicomin], for which, in experiment [1], the IC50 was determined as 14.48 ± 0.11 µM and the Ki is 9.34 ± 0.07 µM.

Regarding `C=C(C)[C@H]1CC=C(C)CC1` [(R)-(+)-Limonene], in experiment [1], the IC50 was 6.36 ± 0.25 µM and the Ki was 4.1 ± 0.16 µM.

Regarding (S)-(-)-Limonene, in experiment [1], the IC50 was 5.51 ± 0.42 µM and the Ki is 3.41 ± 0.04 µM.

Take `CC1=CCC2C(C1)C2(C)C` (single isomer, unassigned; (+)) [(+)-3-Carene]: in experiment [1], the IC50 was found to be 3.05 ± 0.71 µM and the Ki is 1.97 ± 0.46 µM. For the same compound, the “Effect of dsCSP2 injection” value in experiment [4] is “significantly reduced”.

With `CC1=CC[C@H](C(C)C)C=C1` [(R)-(-)-a-Phellandrene], in experiment [1], the IC50 was determined as 8.77 ± 0.24 µM and the Ki was 5.66 ± 0.16 µM.

As for `C=CC(=C)CCC=C(C)C` [Myrcene], in experiment [4], the “Effect of dsCSP2 injection” value is listed as “significantly reduced”.
